The values below come from patent US20220288052A1, “COMPOUND FOR COMBINATION TREATMENT” (priority 2019, published 2022).

Bounds are passed on as bounds.

For assay [1], the target named is T1, dopamine transporter (DAT) (Mus musculus, UniProt Q61327).
T1 construct: in vivo DAT transporter occupancy (open bars) in mouse striatum; from tissue; host or cells: mouse striatum (in vivo; C57 mice in the MPTP model)
Nature of the assay: MPTP model of DAT inhibition (striatal dopamine depletion). Format: in vivo, C57 mouse. More on the design: Dopamine Mean ± SEM / DOPAC Mean ± SEM / HVA Mean ± SEM: unit not given here. As to conditions: MPTP 25 mg/kg s.c. alone. From the text: In this model compound (I) induced protection against the dopamine depletion induced by the entry of the MPTP metabolite MPP+ into the dopamine terminals of the mouse C57 striatal tissue.

Assay [2] relates to NMRI mice. Nature of the assay: Mouse forced swim test (mFST). As to conditions: mFST (NMRI), p.o. 60 min. Format: in vivo. Here is the method: Compound (I) was tested in two of the most widely used behavioural screens for predicting antidepressant effects in the clinic: the mouse forced swim test (mFST) and mouse tail suspension test (mTST).
In order to further characterize the role played by 5-HT and DA-ergic neurotransmission in the antidepressant-like effects of compound (I), the potential involvement of 5-HT1A and D1 receptors was investigated in the mFST.

A further assay relates to C57 mice. Nature of the assay: Mouse tail suspension test (mTST). Format: in vivo. The following applies: i.p. 30 min.
Assay [3] concerns nialamide pre-treated mice. Kind of assay: Nialamide-induced 5-HT syndrome (m5-HT). Format: in vivo, mouse. The following applies: m5-HT, p.o. 0 min. As for the experimental part:
50 mg/kg nialamide s.c. t=120 min. Compound (I) p.o. t=0. n=4.
(§1) Compound (I) was tested in a classical test often used to measure the ability of a compound to block the reuptake of 5-HT in vivo: nialamide-induced 5-HT syndrome (m5-HT). In addition, compound (I) was tested in a locomotor activity paradigm (mLA) as a measure of its ability to block the reuptake of DA and therefore induce motility. It is generally accepted that >60% DA transporter blockade is needed to induce increased motility in this test.

The test system of assay [4] is NMRI mice. Kind of assay: Locomotor activity (mLA). Format: in vivo, mouse. As to conditions: mLA; for MED: p.o. 0 min. As for the experimental part: FIG. 8: The effects of compound (I) on locomotor activity. Compound (I) p.o. in NMRI mice. TSE Motility.
as §1

Assay [5] has as its system NMRI mice. Kind of assay: Mouse marble burying test (mMB). Format: in vivo. As to conditions: Marble burying, p.o., −60 min. Here is the method: FIG. 13: Marble burying. In the marble-burying test mice exposed to a novel object (marbles) bury them in the sawdust floor covering. Compounds showing anxiolytic-like activity decrease the number of buried marbles at non-sedative doses. […] The number of marbles covered by sawdust was counted at the end of a 60-min session.
(§2) Compound (I) was tested in three widely used behavioural screens for predicting anxiolytic effects in the clinic: the mouse marble burying test (mMB), mouse zero maze (mZM) and mouse stress-induced hyperthermia test (mSIH).

The test system of another assay is mice. Kind of assay: Mouse zero maze (mZM). As to conditions: mZero maze, p.o., 7 days OD. Format: in vivo. As for the experimental part:
Mice were treated (peroral administration) for 7 days with either, vehicle, duloxetine (10 mg/kg), and compound I (0.1 mg/kg, 1 mg/kg, and 3 mg/kg) (n=8 in each group).
as §2

The subject of assay [6] is NMRI mice. Kind of assay: Mouse stress-induced hyperthermia test (mSIH). Format: in vivo. The following applies: mSIH, p.o., −60 min. Here is the method: FIG. 14: Stress-induced hyperthermia. When mice are confronted with a stress-full event, the body temperature rises.
as §2

T1 sequence (Q61327 whole entry): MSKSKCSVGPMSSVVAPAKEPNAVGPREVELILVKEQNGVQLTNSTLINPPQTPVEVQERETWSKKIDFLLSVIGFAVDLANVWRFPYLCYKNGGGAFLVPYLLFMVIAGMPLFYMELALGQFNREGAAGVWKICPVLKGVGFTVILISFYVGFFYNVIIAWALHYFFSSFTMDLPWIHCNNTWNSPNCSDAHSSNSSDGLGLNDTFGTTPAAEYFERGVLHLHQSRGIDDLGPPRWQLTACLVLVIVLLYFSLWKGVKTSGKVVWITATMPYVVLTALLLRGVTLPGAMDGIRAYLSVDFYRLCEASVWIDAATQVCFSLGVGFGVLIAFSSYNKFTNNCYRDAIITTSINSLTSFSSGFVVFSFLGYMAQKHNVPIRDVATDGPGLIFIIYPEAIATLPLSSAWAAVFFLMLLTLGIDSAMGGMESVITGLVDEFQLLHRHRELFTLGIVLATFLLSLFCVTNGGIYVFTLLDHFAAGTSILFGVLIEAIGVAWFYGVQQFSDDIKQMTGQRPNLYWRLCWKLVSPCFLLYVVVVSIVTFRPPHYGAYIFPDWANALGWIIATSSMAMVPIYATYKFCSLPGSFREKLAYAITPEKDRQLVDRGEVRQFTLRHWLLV
Description for C57 mice: C57 males, 25-28 g, Taconic, 16/8-06. Mice acclimatized to ground floor 5 days before testing. Mice saline injected once a day twice before test day. 22° C., N=7-8.

For the molecule `CN1CC=C(c2ccccc2)CC1` [MPTP, reference compound], in assay [1], the “DOPAC Mean ± SEM” value was found to be 1 ± 0.2 and the “HVA Mean ± SEM” value is reported as 0.7 ± 0.1. Moreover, in assay [1] (mouse striatal tissue), the “Dopamine Mean ± SEM” value is listed as 4.2 ± 0.6.

On to `CNCC[C@H](Oc1cccc2ccccc12)c1cccs1` [Duloxetine, reference compound], for which the MED is 30 mg/kg with NMRI mice [2]; 10 mg/kg in the assay on C57 mice; 10 mg/kg in assay [3]; above 60 mg/kg in the assay on NMRI mice [4]; 10 mg/kg with NMRI mice [5]; below 10 mg/kg in the assay on mice. This molecule also had an MED in the assay on NMRI mice [6] above 30 mg/kg. The “Effect on locomotor activity” value in the assay on NMRI mice [4] (p.o.) is on record as “without effect”.

Turning to `CN(C)CCCC1(c2ccc(F)cc2)OCc2cc(C#N)ccc21` (stereo not drawn) [Citalopram, reference compound], the MED in the assay with NMRI mice [2] is 10 mg/kg; in the assay with C57 mice it was below 5 mg/kg; in assay [3] it was 10 mg/kg; with NMRI mice [4], above 60 mg/kg.
